Series [1] in a line: Pd(0) Larock indole macrocyclisation (aryl C-Br + TES-alkyne); Pd(OAc)2 0.5 eq, tBu3P·HBF4 1.0 eq, DIPEA 10 eq for 54; 32 by previously reported procedure. The conditions noted are these: the molecule shown is the open-chain precursor, 110.0 °C.
Series [2] is described as follows: Pd(0) Larock indole macrocyclisation (aryl C-Br + TES-alkyne, ArNHAc; forms Trp C3a-C3 and N1-C2 bonds); Pd(OAc)2 0.5 eq, tBu3P·HBF4 1.0 eq, DIPEA 10 eq. The following applies: the molecule shown is the open-chain precursor; 16-membered ring; toluene; 20.0 mM; 110.0 °C; 12.0 h; 5 steps.

With `CC[Si](C#CC[C@H](NC(=O)[C@@H]1CCCN1C(=O)[C@H](Cc1ccc(OC)c(-c2ccc(NC(C)=O)c(Br)c2)c1)NC(=O)OC(C)(C)C)C(=O)OC)(CC)CC` [Boc-Tyr(OMe, 3-(4-NHAc-3-Br-phenyl))-Pro-Pra(TES)-OMe], the ring closure, isolated yield in series [1] (16-membered ring;) amounted to 45%.

`CC[Si](C#CC[C@H](NC(=O)[C@@H]1CCCN1C(=O)[C@H](Cc1cc(F)cc(-c2ccc(NC(C)=O)c(Br)c2)c1)N1C(=O)c2ccccc2C1=O)C(=O)OC)(CC)CC` [Phth-Phe(5-F, 3-(4-NHAc-3-Br-phenyl))-Pro-Pra(TES)-OMe]: the ring closure, yield over several steps in series [2] came to 23%.

Take `CC[Si](C#CC[C@H](NC(=O)[C@@H]1CCCN1C(=O)[C@H](Cc1ccc(F)c(-c2ccc(NC(C)=O)c(Br)c2)c1)NC(=O)OC(C)(C)C)C(=O)OC)(CC)CC` [Boc-Phe(4-F, 3-(4-NHAc-3-Br-phenyl))-Pro-Pra(TES)-OMe]: the ring closure, yield over several steps in series [2] was determined as 31%.

As for `CC[Si](C#CC[C@H](NC(=O)[C@@H]1CCCN1C(=O)[C@H](Cc1ccc(C)c(-c2ccc(NC(C)=O)c(Br)c2)c1)N1C(=O)c2ccccc2C1=O)C(=O)OC)(CC)CC` [Phth-Phe(4-Me, 3-(4-NHAc-3-Br-phenyl))-Pro-Pra(TES)-OMe], the ring closure, yield over several steps in series [2] was determined as 39%.

For `CC[Si](C#CC[C@H](NC(=O)[C@@H]1CCCN1C(=O)[C@H](Cc1cccc(-c2ccc(NC(C)=O)c(Br)c2)c1)N1C(=O)c2ccccc2C1=O)C(=O)OC)(CC)CC` [Phth-Phe(3-(4-NHAc-3-Br-phenyl))-Pro-Pra(TES)-OMe], the ring closure, yield over several steps in series [2] was determined as 30%.

On to `CC[Si](C#CC[C@H](NC(=O)OC(C)(C)C)C(=O)N[C@@H](C)C(=O)N[C@@H](CC(C)C)C(=O)N[C@@H](Cc1ccc(OC)c(-c2ccc(Br)c(N)c2)c1)C(=O)OC)(CC)CC` [Boc-Pra(TES)-Ala-Leu-Tyr(OMe, 3-(3-NH2-4-Br-phenyl))-OMe], for which the ring closure, isolated yield in series [1] (20-membered ring;, 12.0 h) is 79%.
